From patent US9713618B2, “Method for modifying food intake and regulating food preference with a DPP-4 inhibitor” (Boehringer Ingelheim International GmbH, priority 2012, dated 2017)
Where no end group is shown, it is not given here.

Key:
[1] = Acute nocturnal food intake in normal-weight rats; type: in vivo, rat; details: linagliptin 0.5 mg/kg sc BID, GLP-1 0.4 mg/kg sc BID
Description: (§1) This anti-obesity effect is caused by appetite suppression and change in diet preference, presumably associated with increased dynorphin activity in dopaminergic forebrain regions involved in reward anticipation and habit learning.

[2] = Diet-induced obese (DIO) rats: body weight, food intake, diet preference; type: in vivo, rat; details: 14 days of monotherapy
Description: as §1

[3] = Oral sucrose tolerance test (glucose control) on Day 4 in diabetic ZDF rats; type: in vivo, Male ZDF-Leprfa/Crl (diabetic fa/fa) rats; details: po daily 4 days, oral sucrose tolerance test Day 4
Experimental: (§2) Male ZDF-Leprfa/Crl (diabetic fa/fa) rats fed standard chow are allocated (n=10/group) based on body weight and fasting plasma glucose (FPG). […] An oral sucrose tolerance test (4 g/kg po) is performed on Day 4 and body weight is recorded daily.

[4] = system: active GLP-1; assay: Plasma active GLP-1 5 min after sucrose load in diabetic ZDF rats; type: in vivo, Male ZDF-Leprfa/Crl (diabetic fa/fa) rats; details: 5 min after the sucrose load
Experimental: as §2

[5] = Overall body weight in diabetic ZDF rats dosed daily for 4 days; type: in vivo, Male ZDF-Leprfa/Crl (diabetic fa/fa) rats; details: po daily 4 days
Experimental: as §2

[6] = Safety and tolerability in people with type 2 diabetes
[7] = Pharmacokinetics of BI 1356 after multiple oral doses once daily for 12 days in patients with type 2 diabetes; details: for fe0-24 / feτ, ss: gMean; for feτ, ss: steady state (Day 12)
[8] = S1: linagliptin 1 mg/kg, high-dose voglibose 10 mg/kg
[9] = S2: linagliptin 1 mg/kg, low-dose voglibose 1 mg/kg
[10] = S1: linagliptin 1 mg/kg, voglibose 10 mg/kg
[11] = S2: linagliptin 1 mg/kg, voglibose 1 mg/kg

| Molecule | nocturnal food intake [1] | body weight [2] | glucose control compared with vehicle [3, 8] [%] | glucose control compared with vehicle [3, 9] [%] | plasma active GLP-1 increase compared with vehicle ([4]; S1 (voglibose 10 mg/kg)) [%] | plasma active GLP-1 increase compared with vehicle ([4]; S2 (voglibose 1 mg/kg)) [%] | change in overall weight compared with vehicle [5, 10] | change in overall weight compared with vehicle [5, 11] [%] | safety and tolerability [6] | mean accumulation ratio RA,AUC ([7]; doses above 1 mg) | fe0-24 ([7]; 2.5 mg oral once daily) [%] | fe0-24 ([7]; 5 mg oral once daily) [%] | fe0-24 ([7]; 10 mg oral once daily) [%] | feτ, ss ([7]; 1 mg oral once daily) [%] | feτ, ss ([7]; 2.5 mg oral once daily) [%] | feτ, ss ([7]; 5 mg oral once daily) [%] | feτ, ss ([7]; 10 mg oral once daily) [%] | form and route of excretion ([7]; human, in vivo) | excreted via the kidney ([7]; therapeutic oral dose levels) | main route of excretion ([7]; therapeutic oral dose levels) |
| --- | --- | --- | --- | --- | --- | --- | --- | --- | --- | --- | --- | --- | --- | --- | --- | --- | --- | --- | --- | --- |
| CC#CCn1c(N2CCC[C@@H](N)C2)nc2c1c(=O)n(Cc1nc(C)c3ccccc3n1)c(=O)n2C [BI 1356] | no effect | no effect | −10 | −17 | 160 | 144 | +0.7% | −0.2 | placebo-like safety and tolerability | ≤ 1.4 | 0.139 | 0.453 | 0.919 | 3.34 | 3.06 | 6.27 | 3.22 | primarily excreted unchanged via the bile | < 7 % of the administered oral dose | mainly excreted via the liver |
| OCC(CO)N[C@H]1C[C@](O)(CO)[C@@H](O)[C@H](O)[C@H]1O [voglibose, reference compound] |  |  | −33 | −18 |  |  | −3.0% | −1.7 |  |  |  |  |  |  |  |  |  |  |  |  |
| GLP-1: native GLP-1(7-36), short acting GLP-1 receptor agonist (HAEGTFTSDVSSYLEGQAAKEFIAWLVKGR; ends and bridges not checked; UniProt P01275 98-127, looked up, fragment) [reference compound] | modest and short-lived suppression | no effect |  |  |  |  |  |  |  |  |  |  |  |  |  |  |  |  |  |  |
